Entries after “also recorded” stand apart in the source; their conditions may differ. Where a SMILES comes first, the peptide text is derived from it.
Test system: YFP-A. fumigatus
Assay: Ex vivo porcine cornea infected with YFP-A. fumigatus, topical treatment, confocal live-cell imaging
Set-up: species or system Aspergillus fumigatus
Method: FIG. 6 contains images of ex vivo corneas infected with YFP-A. fumigatus treated with either PBS or MFIGAF001. All cornea were treated with one drop of reagent every 2 hours for the first 8 hours, then one drop every 8 hours for the remaining 16 hours. Treatment was continued for 72 hours with this treatment regimen. MFIGAF001 was used at 100 mg/L.
FIG. 7 contains images of an ex vivo cornea infected with A. fumigatus treated with MFIGAF001, using the fluorescent confocal live-cell imaging approach with a yellow fluorescent protein (YFP). The yellow fluorescent signal (yellow in the original graphs, white reproduced here) indicates the live fungal burden that penetrated into the corneal tissue. All cornea were treated with one drop of reagent every 2 hours for the first 8 hours, then one drop every 8 hours for the remaining 16 hours. Treatment was continued for 72 hours with this treatment regimen. MFIGAF001 was used at 100 mg/L.
FIG. 8 contains images of an ex vivo cornea infected with A. fumigatus treated with either Natamycin or MFIGAF001, using the fluorescent confocal live-cell imaging approach with a YFP. All cornea were treated with one drop of reagent every 2 hours for the first 8 hours, then one drop every 8 hours for the remaining 16 hours. […]
YFP-A. fumigatus spores were harvested from 3 days old cultures grown on SAB agar at 37° C. in PBST and quantified using a haemocytometer. […]

For `N=C(N)NCCC[C@@H]1NC(=O)CNC(=O)[C@H](Cc2c[nH]c3ccccc23)NC(=O)[C@H](Cc2ccccc2)NC(=O)[C@H](Cc2c[nH]c3ccccc23)NC(=O)[C@@H](Cc2ccccc2)NC(=O)[C@H](CCCCN)NC(=O)[C@H](CCCCN)NC1=O` [MFIGAF001, Cyclo(Arg-Lys-Lys-phe-Trp-Phe-Trp-Gly)] (HELM PEPTIDE1{F.W.G.R.K.K.[dF].W}$PEPTIDE1,PEPTIDE1,1:R1-8:R2$$$V2.0), the “Live fungal burden in ex vivo cornea” value (100 mg/L topical drops, 72 h of treatment, vs saline) was “reduced fungal burden; also recorded: elimination of live fungal burden” and the “Efficacy ex vivo compared with Natamycin” value (MFIGAF001 100 mg/L, Natamycin 120 mg/L, 72 hours) was “comparable efficacy”.
